Experimental data taken from publication PMC6413923 (Journal of medicinal chemistry, 2017).
Where two headings read alike, the source gives them in different places.

What was measured:
MT1-MMP = MT1-MMP (Homo sapiens, UniProt P50281); conditions: cited from earlier work
MMP-2 = MMP-2 (Homo sapiens, UniProt P08253); conditions: cited from earlier work; for Ki: read-out: Ki(app) MMP-2
[1] = first generation THPI; cited from earlier work
MMP-9 = MMP-9 (Homo sapiens, UniProt P14780); conditions: cited from earlier work; for Ki: read-out: Ki(app) MMP-9
Chain of MMP-9 (P14780 107-444 limits assumed): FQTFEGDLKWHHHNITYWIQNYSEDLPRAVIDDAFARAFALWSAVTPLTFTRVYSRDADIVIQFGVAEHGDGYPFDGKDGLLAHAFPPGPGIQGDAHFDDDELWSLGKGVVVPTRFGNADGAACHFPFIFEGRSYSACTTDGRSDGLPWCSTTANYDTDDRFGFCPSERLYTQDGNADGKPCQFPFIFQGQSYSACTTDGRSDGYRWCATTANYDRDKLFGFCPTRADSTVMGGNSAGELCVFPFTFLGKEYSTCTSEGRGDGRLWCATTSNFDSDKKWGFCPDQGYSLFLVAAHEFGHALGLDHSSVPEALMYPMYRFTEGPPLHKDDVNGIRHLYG

collagenolytic MMPs = conditions: in words, cited from earlier work
CD thermal transition = assay type: physicochemical; conditions: 25 °C, from thermal transition at 225 nm
[2] = system: wild-type mice subjected to CLP; conditions: cited from earlier work
cytokines and chemokines = conditions: cited from earlier work
[3] = system: lung myeloperoxidase (MPO); conditions: cited from earlier work
MMP-1 = molecular target: T1, MMP-1 (Homo sapiens, UniProt P03956); conditions: in words; cited from earlier work
T1 sequence (P03956 100-469): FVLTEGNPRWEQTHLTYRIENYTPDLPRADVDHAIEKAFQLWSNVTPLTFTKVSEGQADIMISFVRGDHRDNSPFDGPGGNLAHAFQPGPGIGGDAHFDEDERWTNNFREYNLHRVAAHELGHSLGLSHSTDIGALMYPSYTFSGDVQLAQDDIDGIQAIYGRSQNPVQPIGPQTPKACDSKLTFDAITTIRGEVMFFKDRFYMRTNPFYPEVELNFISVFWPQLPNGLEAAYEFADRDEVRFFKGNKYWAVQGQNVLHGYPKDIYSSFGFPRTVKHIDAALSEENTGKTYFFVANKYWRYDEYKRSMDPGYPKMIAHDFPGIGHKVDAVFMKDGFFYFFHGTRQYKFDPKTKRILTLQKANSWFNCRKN

Chain of MMP-2 (P08253 110-465 limits assumed): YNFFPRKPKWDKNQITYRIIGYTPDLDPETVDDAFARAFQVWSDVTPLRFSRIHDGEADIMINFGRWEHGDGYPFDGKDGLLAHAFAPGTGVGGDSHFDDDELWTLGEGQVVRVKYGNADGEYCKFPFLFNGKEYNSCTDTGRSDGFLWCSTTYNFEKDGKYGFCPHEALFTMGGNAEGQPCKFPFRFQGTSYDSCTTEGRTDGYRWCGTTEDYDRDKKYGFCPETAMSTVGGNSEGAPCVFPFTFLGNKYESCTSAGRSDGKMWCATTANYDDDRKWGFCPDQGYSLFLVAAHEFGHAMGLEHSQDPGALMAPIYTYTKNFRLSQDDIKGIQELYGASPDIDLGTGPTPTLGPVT

Which “inhibition of MT1-MMP” value (MT1-MMP) does the source give for “C6-(Gly-Pro-Hyp)4-Gly-Pro-Pro-GlyΨ{PO2H-CH2}Val-Val-Gly-Glu-Gln-Gly-Glu-Gln-Gly-Pro-Pro-(Gly-Pro-Hyp)4-NH2 [C6-α1(V)GlyΨ{PO2H-CH2}Val THPI]” here?
Its value is “did not inhibit MT1-MMP”.

What about the Ki (MMP-2; 10 °C) of the same compound?
The Ki was 4.14 ± 0.47 nM.

What about the Ki (MMP-2; 37 °C) of the same compound?
Its Ki is 19.2 ± 0.64 nM.

And the Tm [1]?
The Tm was 25 °C.

And the “inhibition of full-length (82 kDa) MMP-9 versus TIMP-1 resistant (65 kDa) MMP-9” value (MMP-9; comparison in words)?
The value was “similar”.

And the Ki (MMP-9; 10 °C)?
The Ki was 1.76 ± 0.05 nM.

And the Ki (MMP-9; 37 °C)?
The Ki was 1.29 nM.

And the “inhibition of MMPs” value (collagenolytic MMPs)?
The value was “low nanomolar range”.

Which “% folded” value (CD thermal transition) does the source give for “(Gly-Pro-Hyp)6-Gly-Pro-Gln-Gly~Val-Gln-His-Gln-Arg-Gly-Val-Arg-(Gly-Pro-Hyp)5-NH2 [VQH]” here?
Its value is 87%.

Which results are given for `COc1ccc(S(=O)(=O)N2Cc3ccccc3C[C@@H]2C(=O)NO)cc1` [(3R)-(+) - [2-(4-methoxy-benzenesulfonyl)-1,2,3,4-tetrahydroisoquinoline-3-hydroxamate]]?
survival of CLP mice [2]: improved survival; IL-1β in CLP mice (cytokines and chemokines): significantly reduced; IL-6 in CLP mice (cytokines and chemokines): significantly reduced; MIP-1α in CLP mice (cytokines and chemokines): significantly reduced; TNF-α in CLP mice (cytokines and chemokines): significantly reduced; whole lung MPO activity in CLP mice [3]: reduced whole lung MPO activity

Which “% folded” value (CD thermal transition) does the source give for “(Gly-Pro-Hyp)5-Gly-Arg-Ile-Gly-Phe~Leu-Arg-Thr-Gln-Gly-Val-Arg-(Gly-Pro-Hyp)5-Tyr-NH2 [FLRT]” here?
Its value is 79%.

For “(Gly-Pro-Hyp)6-Gly-Pro-Gln-Gly~Ile-Tyr-Phe-Gln-Arg-Gly-Val-Arg-(Gly-Pro-Hyp)5-NH2 [IYF]”, which “% folded” value (CD thermal transition) is on record?
The value was 88%.

Which “% folded” value (CD thermal transition) does the source give for “(Gly-Pro-Hyp)5-Gly-Arg-Ile-Gly-His~Leu-Arg-Thr-Gln-Gly-Val-Arg-(Gly-Pro-Hyp)5-Tyr-NH2 [HLRT]” here?
The value was 72%.

For “(Gly-Pro-Hyp)4-Gly-mep-Flp-Gly-Pro-Gln-GlyΨ{PO2H-CH2}Leu-Ala-Gly-Gln-Arg-Gly-Ile-Arg-Gly-mep-Flp-(Gly-Pro-Hyp)4-Tyr-NH2 [α1(I-III)GlyΨ{PO2H-CH2}Leu THPI]”, which Ki (MT1-MMP; read-out: Ki MT1-MMP) is on record?
The Ki was 120 nM.

What about the “inhibition of MMP-1” value (MMP-1) of the same compound?
Its value is “effectively inhibits”.

And the “inhibition of MMP-2” value (MMP-2; in words)?
The value was “effectively inhibits”.

And the “inhibition of MMP-9” value (MMP-9; in words)?
The value was “effectively inhibits”.

What about the “selectivity toward collagenolytic MMPs” value (collagenolytic MMPs; first generation) of the same compound?
Its value is “selective toward collagenolytic MMPs”.

What about the “inhibition of MMPs” value (collagenolytic MMPs) of the same compound?
The value was “low nanomolar range”.

With “(Gly-Pro-Hyp)5-Gly-Arg-Ile-Gly-Phe~Leu-Asp-Pro-Gln-Gly-Val-Arg-(Gly-Pro-Hyp)5-Tyr-NH2 [FLDP]” as the compound, how does the “% folded” value (CD thermal transition) read?
The value was 72%.

For “(Gly-Pro-Hyp)6-Gly-Pro-Gln-Gly~Val-Ser-Trp-Gln-Arg-Gly-Val-Arg-(Gly-Pro-Hyp)5-NH2 [VSW]”, which “% folded” value (CD thermal transition) is on record?
The value was 92%.

Which “% folded” value (CD thermal transition) does the source give for “(Gly-Pro-Hyp)6-Gly-Pro-Gln-Gly~Ile-His-Lys-Gln-Arg-Gly-Val-Arg-(Gly-Pro-Hyp)5-NH2 [IHK]” here?
Its value is 83%.
